# Data published in the OligoGym collection.
# “And” between values parts separate entries of the source, which are not always exact repeats. Identical values can stand only once. After the bases stand the sugars from the 5' end (letter, count) and the backbone: PS all phosphorothioate, else s phosphorothioate and o phosphodiester by linkage. Methylation of C is not given here. e = 2'-O-(2-methoxyethyl) (MOE); k = constrained ethyl (cEt); d = 2'-deoxy (DNA)
# Biological target: APOL1
# Conditions: ASO
Sequence,"target mRNA inhibition (A431, 0.0156 µM)","target mRNA inhibition (A431, 0.0625 µM)","target mRNA inhibition (A431, 0.25 µM)","target mRNA inhibition (A431, 1 µM)","target mRNA inhibition (A431, 2 µM)","target mRNA inhibition (A431, 0.04 µM)"
"AGCTTTAAACTCAGGT (sugars kkdddddkekeddddd, PS)",31%,53%,79%,92%,94%,
"TTCTATTAGAGGGCTA (sugars kkkddddkekekdddd, PS)",,,,,42%,
"TTCAGCTAAGACCAGT (sugars k4 d9 k3, PS)",,35%,71%,88%,,
"TATTTCTTGATGTGGT (sugars kkddddekekeddddd, PS)",36%,66%,90%,98% and 96%,99%,53% and 50%
"ATTCAGAATTTCCACT (sugars k2 d4 e4 k2 d4, PS)",,,,,64%,
"GAAGCTTTAAACTCAG (sugars kkddddkekekddddd, PS)",,,,,84%,
"TTATTCTCATGGTACA (sugars kkddddkekekddddd, PS)",,,,,47%,
"CATTCAGAATTTCCAC (sugars k3 d4 k3 e1 d5, PS)",5%,25%,64%,82%,92%,
"TTCTCATGGTACAGGA (sugars kkddddekekeddddd, PS)",,,,,79%,
"ACTTTATACCAGTGTC (sugars k3 d4 k3 e1 d5, PS)",,,,,58%,
"GCTAATTTTCTGACTG (sugars k2 d4 e3 k2 d5, PS)",35%,62%,81%,92%,94%,
"ATCAGATGGGTACTTC (sugars kdddddkekekddddd, PS)",,,,,73%,
"GAAGATTGGCTCTGGC (sugars k3 d4 k3 e1 d5, PS)",,,,,70%,
"AACTTTACCTCACCCT (sugars k4 d9 k3, PS)",,35%,68%,88%,,
"ATCAGATGGGTACTTC (sugars k2 d4 e3 k2 d5, PS)",,,,,67%,
"TCCGTCAATATATTCT (sugars kkkddddkekekdddd, PS)",30%,57%,84%,94%,95%,50%
"TATTTCTTGATGTGGT (sugars k3 d4 k3 e1 d5, PS)",45%,78%,95%,98%,99%,
"CATTCAGAATTTCCAC (sugars kekddddeekkddddd, PS)",,,,,89%,
"CCTCATTGCAAATCCT (sugars k4 d9 k3, PS)",,54%,84%,96%,,
"GCTTTAAACTCAGGTG (sugars kkddddekekeddddd, PS)",14%,41%,62%,86%,92%,
"CTTTATACCAGTGTCT (sugars kkkddddkdkdkdddd, PS)",,,,,87%,
"GAAGATTGGCTCTGGC (sugars kddddkekekeddddd, PS)",,,,,21%,
"ATTCTCATGGTACAGG (sugars kkkddddkekeddddd, PS)",15%,41%,73%,83%,94%,
"ACACATCATTGGGTTA (sugars kkddddkdkdkddddd, PS)",,,,,57%,
"GTGTATTTCTTGATGT (sugars k2 d4 e3 k2 d5, PS)",18%,51%,79%,91%,96%,
"TTTATACCAGTGTCTT (sugars kkkddddkekekdddd, PS)",,,,,76%,
